Laboratory results published in PubChem BioAssay AID1959 (Broad Institute, 2009).
Active and inactive are the calls of the source.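 Rule for the calls: active = growth-inhibition EC50 no more than tenfold above the top tested dose; inconclusive = flat fit between 30% and 70% inhibition, or unreliable fit; inactive = EC50 more than tenfold above the top tested dose.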

The molecules below were run on E. coli NEB5alpha growth, BacTiter-Glo luminescence, 4 h (assay: Escherichia coli growth inhibition, dose response, counter-screen for MEX-5/POS-1 RNA-binding inhibitor project, luminescence, NEB5alpha (AID 1959);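 note: pUC19-transformed ampicillin-resistant cells grown in LB with ampicillin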).
With `COc1ccc(N2C(=O)C(Cl)=C(Nc3ccccc3O)C2=O)cc1` the EC50 was > 11 µM (inactive).
In the case of `Cc1cccc(NC2=Nc3ccccc3N3C2=Nc2c(c(C)nn2-c2ccccc2)C3c2ccc(O)c(O)c2)c1` (centres undefined), the EC50 is reported as > 11 µM (inactive).
For `CCCCOC(=O)Cn1c2ccc(OC)cc2c2nc3ccccc3nc21`, the EC50 was > 11 µM (inactive).
`COc1ccc(CCn2c(O)c(C=Nc3ccc(NC(C)=O)cc3)c(=O)[nH]c2=O)cc1OC` was tested, and the EC50 was > 11 µM (inactive).
For `COc1ccc(C(=O)/C=C/Nc2ccc([N+](=O)[O-])cc2C)cc1OC`, the EC50 was > 11 µM (inactive).
In the case of `CN(C)c1ccc2nc3ccc(=[N+](C)C)cc-3sc2c1`, the EC50 is reported as > 11 µM (inactive).
With `COc1cccc(/C=C2\SC(=S)N(CCCC(=O)NC3=NCCS3)C2=O)c1` the EC50 was > 11 µM (inactive).
For `CC1=CC(=C2N=C(c3ccccc3)OC2=O)C=C(C)O1`, the EC50 was > 11 µM (inactive).
In the case of `Cc1ccc(CN2C(=O)N/C(=C\c3cccn3-c3cccc(C(=O)O)c3)C2=O)cc1`, the EC50 is reported as > 11 µM (inactive).
`Oc1ccc(/C=N/N2CCCCC2)c(O)c1O` was tested, and the EC50 was > 11 µM (inactive).
With `CCCCOC(=O)c1ccc(N=Nc2c(C)c(C#N)c(O)[nH]c2=O)cc1` the EC50 was > 11 µM (inactive).
In the case of `Cc1ccc(Cl)c2c(N=Nc3ccccc3)c(O)[nH]c12`, the EC50 is reported as > 11 µM (inactive).
In the case of `COc1cc(/C=C2\CCc3c2nc2ccccc2c3C(=O)O)cc(OC)c1OC`, the EC50 is reported as > 11 µM (inactive).
`CCOc1ccc(-n2c(O)c(C=Nc3ccc(N4CCOCC4)cc3)c(=O)[nH]c2=O)cc1` was tested, and the EC50 was > 11 µM (inactive).
For `C=CCN1C(=O)NC(=O)/C(=C/c2ccc(OC)c(CSc3ccccn3)c2)C1=O`, the EC50 was > 11 µM (inactive).
With `O=C(NCCF)C1Nc2ccc(OC(F)(F)F)cc2C2C=CCC12` (centres undefined) the EC50 was > 11 µM (inactive).
`Cc1sc(-c2ccccn2)nc1OC(=O)c1cccc(Cl)c1Cl` was tested, and the EC50 was > 11 µM (inactive).
`Cc1c2ccccc2nc2c(F)c(NC(C)C)c(F)c(F)c12` was tested, and the EC50 was > 11 µM (inactive).
`O=C1CCC/C(=N/NC(=O)c2sc3ccccc3c2Cl)C1` was tested, and the EC50 was > 11 µM (inactive).
For `CC(=O)Nc1ccc(S(=O)(=O)NNC(=O)C(=O)NNc2ccccn2)cc1`, the EC50 was > 11 µM (inactive).
In the case of `Cc1cc(/C=C2/C(=O)NC(=O)N(Cc3ccco3)C2=O)c(C)n1-c1ccc(C(=O)O)cc1`, the EC50 is reported as > 11 µM (inactive).
For `COc1ccc(-n2nc3c(=O)[nH][nH]c3cc2=O)cc1`, the EC50 was > 11 µM (inactive).
With `CC(C)(C)OC(=O)NCCCCC1=CC2=CC(=O)C(C)(OC(=O)c3ccco3)C(=O)C2=CO1` (centres undefined) the EC50 was > 11 µM (inactive).
With `Cc1ncc(CO)c(/C=N/NC(=O)c2cc(Br)ccc2O)c1O` the EC50 was > 11 µM (inactive).
`CCCn1c(O)c(CN2CCCCC2)c(C)c(C#N)c1=O` was tested, and the EC50 was > 11 µM (inactive).
With `CCN(CC)c1ccc2cc(C#N)c(=O)oc2c1` the EC50 was > 11 µM (inactive).
`CCCCN1C(=O)/C(=C/C=C2\Oc3ccccc3N2CC)SC1=S` was tested, and the EC50 was > 11 µM (inactive).
In the case of `CN(C)CCN(C)Cc1c2ccccc2c(CN(C)CCN(C)C)c2ccccc12`, the EC50 is reported as > 11 µM (inactive).
`Cc1ccc2nc3c(cc(C(=O)NCC4CCCO4)c(=N)n3C3CCCC3)c(=O)n2c1` (centres undefined) was tested, and the EC50 was > 11 µM (inactive).
In the case of `CCCSc1nnc(N2C(=O)C(O)=C(C(=O)c3ccco3)C2c2ccccc2F)s1` (centres undefined), the EC50 is reported as > 11 µM (inactive).
With `CCc1ccccc1N1C(=O)/C(=C/c2ccc(N3CCN(C)CC3)o2)C(=O)NC1=S` the EC50 was > 11 µM (inactive).
In the case of `COc1ccc(OC)c(C2Nc3c(Cl)ccc(C(=O)O)c3C3C=CCC32)c1` (centres undefined), the EC50 is reported as > 11 µM (inactive).
`Cc1ccc2oc(=O)c(/C=C(\O)CC(C)C)nc2c1` was tested, and the EC50 was > 11 µM (inactive).
For `CC(=O)c1ccc(NC(=O)CSc2nnc(-c3ccncc3)o2)cc1`, the EC50 was > 11 µM (inactive).
`CC1(OC(=O)CCc2ccccc2)C(=O)C=C2C=C(C3CC3)OC=C2C1=O` (centres undefined) was tested, and the EC50 was > 11 µM (inactive).
For `COc1ccc(/C=C2\CCCc3c2nc2ccccc2c3C(=O)O)cc1OC`, the EC50 was > 11 µM (inactive).
In the case of `Cc1cccc(C(=O)NCCCNC(=O)c2cccc(C)c2)c1`, the EC50 is reported as > 11 µM (inactive).
With `CCc1ccc(/C=C2\SC(=S)N(CCCC(=O)Nc3ccccn3)C2=O)cc1` the EC50 was > 11 µM (inactive).
`COc1ccc(C(=O)N=c2c(C#N)cc3c(=O)n4cccc(C)c4nc3n2Cc2ccco2)cc1` was tested, and the EC50 was > 11 µM (inactive).
For `CCOc1cc(/C=C2\C(=N)N3N=C(S(C)(=O)=O)SC3=NC2=O)ccc1OCCOc1cccc(OC)c1`, the EC50 was > 11 µM (inactive).
With `CCN(CC)c1ccc(N=Cc2ccc(N(CC)CC)cc2O)cc1` the EC50 was > 11 µM (inactive).
`CC1CN(c2nc3ccccc3nc2C(C#N)C(=O)NC2CCCCC2)CC(C)O1` (centres undefined) was tested, and the EC50 was > 11 µM (inactive).
With `N#CC1=C(N)OC2=C(C(=O)CCC2)C1c1cc2c(cc1Cl)OCO2` (centres undefined) the EC50 was > 11 µM (inactive).
In the case of `O=C(NC(=S)NNS(=O)(=O)c1ccccc1)c1cccnc1`, the EC50 is reported as > 11 µM (inactive).
In the case of `Cc1nc2ccccc2c2oc(C(=O)Nc3ccc4c(c3)OCCO4)cc12`, the EC50 is reported as > 11 µM (inactive).
In the case of `O=C(NNC(=O)c1cnccn1)c1cccc([N+](=O)[O-])c1`, the EC50 is reported as > 11 µM (inactive).
For `CC(=Nc1ccc(Br)cc1)c1sc2ccccc2c1O`, the EC50 was > 11 µM (inactive).
In the case of `O=C(O)CCC(=O)NCc1ccc2[nH]c3c(c2c1)CCCC3`, the EC50 is reported as > 11 µM (inactive).
For `CCCCCN1C=CC=C/C1=C\C=C(C#N)C#N`, the EC50 was > 11 µM (inactive).
`CCOc1cccc(C2C(C(=O)c3ccc(C)o3)=C(O)C(=O)N2c2nccs2)c1` (centres undefined) was tested, and the EC50 was > 11 µM (inactive).
With `CC(C)(C)NC(=S)NCCc1ccccc1` the EC50 was > 11 µM (inactive).
`CCCCC1=CC2=CC(=O)C(C)(OC(=O)c3cnc4ccccc4n3)C(=O)C2=CO1` (centres undefined) was tested, and the EC50 was > 11 µM (inactive).
`C=CCOc1ccc(C2OC34CCCCC3C(C#N)(C#N)C2(C#N)C(=N)O4)cc1` (centres undefined) was tested, and the EC50 was > 11 µM (inactive).
For `O=c1c2ccccc2oc2ccc(NCCCn3ccnc3)cc12`, the EC50 was > 11 µM (inactive).
For `CC(=O)Nc1ccc(N/C=C/C(=O)c2ccc(C)o2)cc1`, the EC50 was > 11 µM (inactive).
With `CCOC(=O)C1Nc2c(F)cc(C)cc2C2C=CCC12` (centres undefined) the EC50 was > 11 µM (inactive).
In the case of `Oc1cc2c(cc1O)C(c1ccccc1)CNCC2` (centres undefined), the EC50 is reported as > 11 µM (inactive).
`COC(=O)[C@@H]1[C@H]2C[C@H]3c4[nH]c5ccccc5c4CCN3C[C@@H]2CC[C@@H]1O` was tested, and the EC50 was > 11 µM (inactive).
With `CCOCCCn1c(=NC(=O)c2cccs2)c(C#N)cc2c(=O)n3cccc(C)c3nc21` the EC50 was > 11 µM (inactive).
For `Cc1ccc(-c2nnc(Nc3ccc(CC(N)=O)cc3)c3ccccc23)cc1S(N)(=O)=O`, the EC50 was > 11 µM (inactive).
`COC(=O)c1ccc(-n2c(CCC(=O)O)ccc2-c2ccc(C)cc2)cc1` was tested, and the EC50 was > 11 µM (inactive).
`CCn1c(CNC(=O)c2ccc(Cl)cc2)nnc1SCC(=O)N1CCOCC1` was tested, and the EC50 was > 11 µM (inactive).
In the case of `CN1CCCc2cc3c(C(F)(F)F)cc(=O)oc3nc21`, the EC50 is reported as > 11 µM (inactive).
In the case of `N#Cc1c(-c2ccccc2Cl)c2c([nH]c1=O)-c1ccccc1OC2`, the EC50 is reported as > 11 µM (inactive).
In the case of `C1=CC2c3ccccc3NC(c3ccncc3)C2C1` (centres undefined), the EC50 is reported as > 11 µM (inactive).
For `COc1cc(C(CCN2CCCC2)c2c(OC)cc(OC)c3c(-c4ccccc4)cc(=O)oc23)cc(OC)c1OC` (centres undefined), the EC50 was > 11 µM (inactive).
`Cc1ccc(C)n1-c1ccc(C(=O)O)cc1` was tested, and the EC50 was > 11 µM (inactive).
With `CCOc1cccc(=O)c2c(C)n(-c3ccc(C(=O)O)cc3)c(C)c12` the EC50 was > 11 µM (inactive).
With `C/C(O)=c1/ccc2cccc3nc(C)nc1c23` the EC50 was > 11 µM (inactive).
